Reference: ChEMBL document CHEMBL5046315, “CRCM5484: A BET-BDII Selective Compound with Differential Anti-leukemic Drug Modulation” (J Med Chem, 2022)
Active and inactive are the calls of the source. No cut-off for these calls is given here.

Key:
Format in all cases: functional, cell-based
MOLM-14 [1] = test: Potentiation of hydroxychloroquine-induced antileukemic activity against human MOLM-14 cells at 4.3 uM in presence of bone-marrow derived stromal cell-conditioned medium
U-937 [2] = test: Potentiation of sorafenib-induced antileukemic activity against human U-937 cells at 4.3 uM in presence of bone-marrow derived stromal cell-conditioned medium
CCRF-CEM [3] = test: Potentiation of idelalisib-induced antileukemic activity against human CCRF-CEM cells at 4.3 uM in presence of bone-marrow derived stromal cell-conditioned medium
U-937 [4] = test: Potentiation of GSK2879552-induced antileukemic activity against human U-937 cells at 4.3 uM in presence of bone-marrow derived stromal cell-conditioned medium
CCRF-CEM [5] = test: Potentiation of tipifarnib-induced antileukemic activity against human CCRF-CEM cells at 4.3 uM in presence of bone-marrow derived stromal cell-conditioned medium
U-937 [6] = test: Potentiation of ruxolitinib-induced antileukemic activity against human U-937 cells at 4.3 uM in presence of bone-marrow derived stromal cell-conditioned medium
MOLM-14 [7] = test: Potentiation of JQ1-induced antileukemic activity against human MOLM-14 cells at 4.3 uM in presence of bone-marrow derived stromal cell-conditioned medium
U-937 [8] = test: Potentiation of carfilzomib-induced antileukemic activity against human U-937 cells at 4.3 uM in presence of bone-marrow derived stromal cell-conditioned medium
MOLM-14 [9] = test: Potentiation of topotecan-induced antileukemic activity against human MOLM-14 cells at 4.3 uM in presence of bone-marrow derived stromal cell-conditioned medium
MOLM-14 [10] = test: Potentiation of bosutinib-induced antileukemic activity against human MOLM-14 cells at 4.3 uM in presence of bone-marrow derived stromal cell-conditioned medium
CCRF-CEM [11] = test: Potentiation of MK2206-induced antileukemic activity against human CCRF-CEM cells at 4.3 uM in presence of bone-marrow derived stromal cell-conditioned medium
MOLM-14 [12] = test: Potentiation of decitabine-induced antileukemic activity against human MOLM-14 cells at 4.3 uM in presence of bone-marrow derived stromal cell-conditioned medium
U-937 [13] = test: Potentiation of docetaxel-induced antileukemic activity against human U-937 cells at 4.3 uM in presence of bone-marrow derived stromal cell-conditioned medium
MOLM-14 [14] = test: Potentiation of clofarabine-induced antileukemic activity against human MOLM-14 cells at 4.3 uM in presence of bone-marrow derived stromal cell-conditioned medium
CCRF-CEM [15] = test: Potentiation of imatinib-induced antileukemic activity against human CCRF-CEM cells at 4.3 uM in presence of bone-marrow derived stromal cell-conditioned medium
CCRF-CEM [16] = test: Potentiation of seliciclib-induced antileukemic activity against human CCRF-CEM cells at 4.3 uM in presence of bone-marrow derived stromal cell-conditioned medium
U-937 [17] = test: Potentiation of cyclopamine-induced antileukemic activity against human U-937 cells at 4.3 uM in presence of bone-marrow derived stromal cell-conditioned medium
CCRF-CEM [18] = test: Potentiation of selinexor-induced antileukemic activity against human CCRF-CEM cells at 4.3 uM in presence of bone-marrow derived stromal cell-conditioned medium
MOLM-14 [19] = test: Potentiation of nelarabine-induced antileukemic activity against human MOLM-14 cells at 4.3 uM in presence of bone-marrow derived stromal cell-conditioned medium
MOLM-14 [20] = test: Potentiation of tipifarnib-induced antileukemic activity against human MOLM-14 cells at 4.3 uM in presence of bone-marrow derived stromal cell-conditioned medium
U-937 [21] = test: Potentiation of GSK126-induced antileukemic activity against human U-937 cells at 4.3 uM in presence of bone-marrow derived stromal cell-conditioned medium
[22] = test system: Acute myeloid leukemic cell; test: Potentiation of vorinostat-induced antileukemic activity against patient derived mouse xenografted acute myeloid leukemic cells assessed as cell viability at 0.16 to 10 uM in presence of bone-marrow derived stromal cell-conditioned medium measured after 72 to 144 hrs by cell-titre glo luminescent assay; conditions: Homo sapiens, dose 0.16-10 µM, time lower […], time upper 144.0 hrs
CCRF-CEM [23] = test: Potentiation of bortezomib-induced antileukemic activity against human CCRF-CEM cells at 4.3 uM in presence of bone-marrow derived stromal cell-conditioned medium
U-937 [24] = test: Potentiation of quizartinib-induced antileukemic activity against human U-937 cells at 4.3 uM in presence of bone-marrow derived stromal cell-conditioned medium
U-937 [25] = test: Potentiation of decitabine-induced antileukemic activity against human U-937 cells at 4.3 uM in presence of bone-marrow derived stromal cell-conditioned medium
U-937 [26] = test: Potentiation of AG-221-induced antileukemic activity against human U-937 cells at 4.3 uM in presence of bone-marrow derived stromal cell-conditioned medium
CCRF-CEM [27] = test: Potentiation of erlotinib-induced antileukemic activity against human CCRF-CEM cells at 4.3 uM in presence of bone-marrow derived stromal cell-conditioned medium
U-937 [28] = test: Potentiation of metformin -induced antileukemic activity against human U-937 cells at 4.3 uM in presence of bone-marrow derived stromal cell-conditioned medium
CCRF-CEM [29] = test: Potentiation of everolimus-induced antileukemic activity against human CCRF-CEM cells at 4.3 uM in presence of bone-marrow derived stromal cell-conditioned medium
U-937 [30] = test: Potentiation of temsirolimus-induced antileukemic activity against human U-937 cells at 4.3 uM in presence of bone-marrow derived stromal cell-conditioned medium
CCRF-CEM [31] = test: Potentiation of EPZ5676-induced antileukemic activity against human CCRF-CEM cells at 4.3 uM in presence of bone-marrow derived stromal cell-conditioned medium
MOLM-14 [32] = test: Potentiation of temsirolimus-induced antileukemic activity against human MOLM-14 cells at 4.3 uM in presence of bone-marrow derived stromal cell-conditioned medium
CCRF-CEM [33] = test: Potentiation of AT9283-induced antileukemic activity against human CCRF-CEM cells at 4.3 uM in presence of bone-marrow derived stromal cell-conditioned medium
CCRF-CEM [34] = test: Potentiation of palbociclib-induced antileukemic activity against human CCRF-CEM cells at 4.3 uM in presence of bone-marrow derived stromal cell-conditioned medium
CCRF-CEM [35] = test: Potentiation of ponatinib-induced antileukemic activity against human CCRF-CEM cells at 4.3 uM in presence of bone-marrow derived stromal cell-conditioned medium
U-937 [36] = test: Potentiation of SGI-1027-induced antileukemic activity against human U-937 cells at 4.3 uM in presence of bone-marrow derived stromal cell-conditioned medium
CCRF-CEM [37] = test: Potentiation of -mastinib -induced antileukemic activity against human CCRF-CEM cells at 4.3 uM in presence of bone-marrow derived stromal cell-conditioned medium
MOLM-14 [38] = test: Potentiation of cladribine-induced antileukemic activity against human MOLM-14 cells at 4.3 uM in presence of bone-marrow derived stromal cell-conditioned medium
U-937 [39] = test: Potentiation of -mastinib -induced antileukemic activity against human U-937 cells at 4.3 uM in presence of bone-marrow derived stromal cell-conditioned medium
U-937 [40] = test: Potentiation of bosutinib-induced antileukemic activity against human U-937 cells at 4.3 uM in presence of bone-marrow derived stromal cell-conditioned medium
MOLM-14 [41] = test: Potentiation of OTX015-induced antileukemic activity against human MOLM-14 cells at 4.3 uM in presence of bone-marrow derived stromal cell-conditioned medium

CC(=O)N1CCc2c(sc3nc(SCC(=O)Nc4cccnc4C)n(Cc4ccco4)c(=O)c23)C1
Activity (MOLM-14 [1]): inactive
Activity (U-937 [2]): inactive
Activity (CCRF-CEM [3]): inactive
Activity (U-937 [4]): inactive
Activity (CCRF-CEM [5]): inactive
Activity (U-937 [6]): inactive
Activity (MOLM-14 [7]): inactive
Activity (U-937 [8]): inactive
Activity (MOLM-14 [9]): inactive
Activity (MOLM-14 [10]): inactive
Activity (CCRF-CEM [11]): inactive
Activity (MOLM-14 [12]): inactive
Activity (U-937 [13]): inactive
Activity (MOLM-14 [14]): inactive
Activity (CCRF-CEM [15]): inactive
Activity (CCRF-CEM [16]): inactive
Activity (U-937 [17]): inactive
Activity (CCRF-CEM [18]): inactive
Activity (MOLM-14 [19]): inactive
Activity (MOLM-14 [20]): inactive
Activity (U-937 [21]): inactive
Activity [22]: Active
Activity (CCRF-CEM [23]): inactive
Activity (U-937 [24]): inactive
Activity (U-937 [25]): inactive
Activity (U-937 [26]): inactive
Activity (CCRF-CEM [27]): inactive
Activity (U-937 [28]): inactive
Activity (CCRF-CEM [29]): inactive
Activity (U-937 [30]): inactive
Activity (CCRF-CEM [31]): inactive
Activity (MOLM-14 [32]): inactive
Activity (CCRF-CEM [33]): inactive
Activity (CCRF-CEM [34]): inactive
Activity (CCRF-CEM [35]): inactive
Activity (U-937 [36]): inactive
Activity (CCRF-CEM [37]): inactive
Activity (MOLM-14 [38]): inactive
Activity (U-937 [39]): inactive
Activity (U-937 [40]): inactive
Activity (MOLM-14 [41]): inactive
